Experimental data published in patent US20220089575A1, “FARNESOID X RECEPTOR AGONISTS AND USES THEREOF” (Metacrine, Inc., priority 2017, published 2022).

Target: T1, hFXR (Homo sapiens, UniProt Q96RI1)
T1 construct: expressed in transfected cells; host or cells: CV-1 cells
T1 sequence (Q96RI1 1-486): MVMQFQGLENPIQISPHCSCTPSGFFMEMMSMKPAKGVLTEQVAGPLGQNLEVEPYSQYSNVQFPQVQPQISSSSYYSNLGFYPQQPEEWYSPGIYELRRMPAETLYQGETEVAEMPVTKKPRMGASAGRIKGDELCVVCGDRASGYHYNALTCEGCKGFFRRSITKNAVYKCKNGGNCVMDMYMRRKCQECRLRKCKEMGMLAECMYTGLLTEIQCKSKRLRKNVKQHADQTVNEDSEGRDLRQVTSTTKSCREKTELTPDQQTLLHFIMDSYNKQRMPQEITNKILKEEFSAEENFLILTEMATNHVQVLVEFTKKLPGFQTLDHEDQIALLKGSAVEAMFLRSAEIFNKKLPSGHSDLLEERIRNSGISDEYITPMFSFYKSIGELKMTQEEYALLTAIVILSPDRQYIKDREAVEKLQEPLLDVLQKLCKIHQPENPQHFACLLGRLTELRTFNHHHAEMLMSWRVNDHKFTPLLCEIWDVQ
T1 sequence (P19793 1-462 partner): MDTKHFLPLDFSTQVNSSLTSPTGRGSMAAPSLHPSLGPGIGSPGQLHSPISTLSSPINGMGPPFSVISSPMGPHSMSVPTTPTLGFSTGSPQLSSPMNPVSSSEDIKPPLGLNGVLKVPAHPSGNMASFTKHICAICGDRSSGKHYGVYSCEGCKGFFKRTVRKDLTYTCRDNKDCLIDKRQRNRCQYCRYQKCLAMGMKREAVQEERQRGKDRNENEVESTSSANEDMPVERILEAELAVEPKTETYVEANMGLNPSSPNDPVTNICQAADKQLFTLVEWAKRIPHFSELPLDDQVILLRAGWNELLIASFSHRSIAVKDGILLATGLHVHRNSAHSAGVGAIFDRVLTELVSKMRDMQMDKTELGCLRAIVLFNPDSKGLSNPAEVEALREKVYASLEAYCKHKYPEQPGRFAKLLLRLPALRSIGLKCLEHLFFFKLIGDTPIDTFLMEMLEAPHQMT
Test: In Vitro FXR Assay (TK): TK-ECRE-luc reporter in transfected CV-1 cells
Type: cell-based
Conditions: 18 hrs, luminescence, maximum efficacy of <25% of the Fexarmine control classified as '+'
Outline: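 Transiently transfected monkey CV-1 cells (hFXR, hRXR, TK-ECRE-luciferase, YFP control plasmid), held in stripped-serum DMEM, received compound dilutions from DMSO for 18 h at 37 °C. Activity was taken from luminescence of the cell lysates.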

SMILES	EC50 [nM]
CN(C)c1ccc([C@H]2CC[C@H](CN(c3cccc(-c4coc(C5CC5)n4)c3)C(=O)[C@H]3CC[C@H](C(=O)O)CC3)CC2)cn1 [Compound 18.04, trans-4-((3-(2-Cyclopropyloxazol-4-yl)phenyl)((trans-4-(6-(dimethylamino)pyridine-3-yl)cyclohexyl)methyl)carbamoyl) cyclohexanecarboxylic acid]	≤ 250
COc1ccc([C@H]2CC[C@H](CN(c3cccc(-c4coc(C5CC5)n4)c3)C(=O)[C@H]3CC[C@H](C(=O)O)CC3)CC2)nc1C#N [Compound 18.05, trans-4-(((trans-4-(6-Cyano-5-methoxypyridin-2-yl)cyclohexyl)methyl)(3-(2-cyclopropyloxazol-4-yl)phenyl)carbamoyl) cyclohexanecarboxylic acid]	≤ 250
COc1ccc([C@H]2CC[C@H](CN(c3cccc(-c4cnc(C5CC5)s4)c3)C(=O)[C@H]3CC[C@H](C(=O)OC)CC3)CC2)cc1C [Compound 18.06, trans-Methyl 4-((3-(2-cyclopropylthiazol-5-yl)phenyl)((trans-4-(4-methoxy-3-methylphenyl)cyclohexyl)methyl)carbamoyl) cyclohexanecarboxylate]	≤ 250
COc1ncc(-c2cccc(N(C[C@H]3CC[C@H](c4ccc(OC)c(C)c4)CC3)C(=O)[C@H]3CC[C@H](C(=O)OC)CC3)c2)s1 [Compound 18.07, trans-Methyl 4-(((trans-4-(4-methoxy-3-methylphenyl)cyclohexyl)methyl)(3-(2-methoxythiazol-5-yl)phenyl)carbamoyl)cyclohexanecarboxylate]	≤ 250
COC(=O)[C@H]1CC[C@H](C(=O)N(C[C@H]2CC[C@H](c3ccc(N(C)C)nc3)CC2)c2cccc(-c3cnc(C4CC4)s3)c2)CC1 [Compound 18.08, trans-Methyl 4-((3-(2-cyclopropylthiazol-5-yl)phenyl)((trans-4-(6-(dimethylamino)pyridin-3-yl)cyclohexyl)methyl)carbamoyl) cyclohexanecarboxylate]	≤ 250
COc1ccc([C@H]2CC[C@H](CN(c3cccc(-c4cnc(C5CC5)s4)c3)C(=O)[C@H]3CC[C@H](C(=O)OC)CC3)CC2)nc1C#N [Compound 18.09, trans-Methyl 4-(((trans-4-(6-cyano-5-methoxypyridin-2-yl)cyclohexyl)methyl)(3-(2-cyclopropylthiazol-5-yl)phenyl)carbamoyl) cyclohexanecarboxylate]	≤ 250
COC(=O)C12CCC(C(=O)N(C[C@H]3CC[C@H](c4ccc(OC)c(C)c4)CC3)c3cccc(-c4cnc(OC)s4)c3)(CC1)CC2 [Compound 18.10, Methyl 4-(((trans-4-(4-methoxy-3-methylphenyl)cyclohexyl)methyl)(3-(2-methoxythiazol-5-yl)phenyl)carbamoyl)bicyclo[2.2.2]octane-1-carboxylate]	≤ 250
COc1ncc(-c2cccc(N(C[C@H]3CC[C@H](c4ccc(OC)c(C)c4)CC3)C(=O)[C@H]3CC[C@H](OCc4ccccc4)CC3)c2)s1 [Compound 18.11, trans-4-(Benzyloxy)-N-((trans-4-(4-methoxy-3-methylphenyl)cyclohexyl)methyl)-N-(3-(2-methoxythiazol-5-yl)phenyl)cyclohexanecarboxamide]	≥ 1000
COc1ccc(CO[C@H]2CC[C@H](C(=O)N(C[C@H]3CC[C@H](c4ccc(OC)c(C)c4)CC3)c3cccc(-c4cnc(OC)s4)c3)CC2)cc1 [Compound 18.12, trans-N-((trans-4-(4-Methoxy-3-methylphenyl)cyclohexyl)methyl)-4-((4-methoxybenzyl)oxy)-N-(3-(2-methoxythiazol-5-yl)phenyl) cyclohexanecarboxamide]	≥ 1000
COc1ccc([C@H]2CC[C@H](CN(c3cccc(-c4cnn(C5CC5)c4)c3)C(=O)[C@H]3CC[C@H](C(=O)OC)CC3)CC2)cc1C [Compound 18.13, trans-Methyl 4-((3-(1-cyclopropyl-1H-pyrazol-4-yl)phenyl)((trans-4-(4-methoxy-3-methylphenyl)cyclohexyl)methyl)carbamoyl) cyclohexanecarboxylate]	≤ 250
